Laboratory results reported in US20260335279A1, “METHODS OF TREATING ISCHEMIA-REPERFUSION INJURIES” (University of Cincinnati, priority 2022, published 2026).

Columns and labels:
KLF5 = KLF5 suppression, mRNA (quantitative real-time PCR) in cardiac tissue, I/R mice; format: in vivo, mouse (C57BL/6)
Procedure: (§1) The myocardial ischemia/reperfusion surgical protocol was applied as follows. Mice were anesthetized with 2% isoflurane inhalation until anesthesia was achieved. The animals' body temperature was maintained at 37 °C throughout the surgical procedure using a heating pad. A tracheal tube was placed via tracheal intubation and the respiration rate was set at 150 strokes/min with a tidal volume of 200 μL, using Minivent ventilator for mice (Model 845, Harvard Apparatus). A 1.2 cm incision was made over the left chest. After retraction of the pectoral major and minor muscles, the fourth intercostal space was exposed. […] The mouse was then monitored during the recovery period, which was generally completed within 3 to 5 minutes. […]
(§2) Total RNA was purified from heart tissue using the TRIzol reagent according to the instructions of the manufacturer (ThermoFischer Scientific, Cat. No.: 15596018). cDNA synthesis was performed using the Applied Biosystems High Capacity cDNA Reverse Transcription Kit (ThermoFischer Scientific, Cat. No.: 4368814) from 500 ng RNA, which had been treated with DNAase I (ThermoFischer Scientific, Cat. No.: 18068015). Quantitative real-time PCR was performed with the SYBR Select Master Mix (ThermoFischer Scientific, Cat. No.: 4472903) using the manufacturer's recommendations. […]

Col3a1 = Col3a1 mRNA in chronic model of I/R injury (real-time PCR); format: in vivo, mouse (C57BL/6); details: 4 weeks post-I/R; vs IR group treated with vehicle
Procedure: as §1, §2

[1] = system: reactive oxygen species in myocardium; test: DHE staining of myocardium (superoxide detection, oxidative stress) after I/R; format: in vivo, mouse (C57BL/6); details: 30 min ischemia, 2 h reperfusion; ML264 5 min prior to reopening of coronary artery; vs I/R vehicle
Procedure: The myocardial ischemia/reperfusion surgical protocol was applied as follows. Mice were anesthetized with 2% isoflurane inhalation until anesthesia was achieved. The animals' body temperature was maintained at 37 °C throughout the surgical procedure using a heating pad. A tracheal tube was placed via tracheal intubation and the respiration rate was set at 150 strokes/min with a tidal volume of 200 μL, using Minivent ventilator for mice (Model 845, Harvard Apparatus). A 1.2 cm incision was made over the left chest. After retraction of the pectoral major and minor muscles, the fourth intercostal space was exposed. […] The left anterior descending coronary artery (LAD) was then located, sutured, and ligated at a site 3-4 mm distal to the origin of the artery under the left atrium using a 6-0 silk suture. The heart was allowed to stabilize for 15 min and right after, ischemia was induced by tightening the suture against a small piece of polyethylene tube. At the end of the 30-minute ischemia period, the ligature was released for the induction of reperfusion, and then the manual evacuation of air and closure of muscle and skin were performed. The mouse was then monitored during the recovery period, which was generally completed within 3 to 5 minutes. […]
Live myocardium was isolated from mice at the time of euthanasia and stained with 20 μM dihydroethidium (DHE) for 30 min at room temperature. […] Individual nuclei were measured within each visual field using ImageJ software, and visual fields were averaged to measure mean fluorescence intensity for each mouse.
In order to unravel the mechanisms of KLF5-mediated cardiotoxicity, oxidative stress levels were evaluated at early reperfusion. […] Given the fact that inflammation and diapedesis of immune cells are important hallmarks of the post-ischemia-reperfusion response, the mRNA levels of IL-1α, IL-1β, IL-6, IL-10, and TNFα in the ischemic myocardium upon ML264 treatment were evaluated at 2 hours of reperfusion (FIGS. 51-5M) and 24 hours of reperfusion (FIGS. 5N-5Q). […]

NOX4 = NOX4 protein in myocardium after I/R (Western blot); format: in vivo, mouse (C57BL/6); details: ML264 treatment, 30 min ischemia, 2 h reperfusion
Procedure: (§3) The myocardial ischemia/reperfusion surgical protocol was applied as follows. Mice were anesthetized with 2% isoflurane inhalation until anesthesia was achieved. The animals' body temperature was maintained at 37 °C throughout the surgical procedure using a heating pad. A tracheal tube was placed via tracheal intubation and the respiration rate was set at 150 strokes/min with a tidal volume of 200 μL, using Minivent ventilator for mice (Model 845, Harvard Apparatus). A 1.2 cm incision was made over the left chest. After retraction of the pectoral major and minor muscles, the fourth intercostal space was exposed. […] The left anterior descending coronary artery (LAD) was then located, sutured, and ligated at a site 3-4 mm distal to the origin of the artery under the left atrium using a 6-0 silk suture. […] The mouse was then monitored during the recovery period, which was generally completed within 3 to 5 minutes. […]
(§4) Isolated myocardial tissue/isolated primary murine cardiomyocytes were homogenized in radioimmunoprecipitation assay buffer (RIPA buffer) containing protease and phosphatase inhibitors (Thermo Fischer Scientific, Cat. No.: A32959). […] Relative densitometry was determined, and the β-actin protein was used as a loading control.
(§5) In order to unravel the mechanisms of KLF5-mediated cardiotoxicity, oxidative stress levels were evaluated at early reperfusion. […]

BCL-XL = BCL-XL anti-apoptotic protein in myocardium after I/R (Western blot); format: in vivo, mouse (C57BL/6); details: ML264-treated group; 30 min ischemia, 2 h reperfusion
Procedure: as §3, §4, §5

IL-1β = IL-1β mRNA in ischemic myocardium; format: in vivo, mouse (C57BL/6); details: evaluated at 2 h and 24 h of reperfusion, vs vehicle
Procedure: as §1, §2

IL-6 = IL-6 mRNA in ischemic myocardium; format: in vivo, mouse (C57BL/6); details: evaluated at 2 h and 24 h of reperfusion, vs vehicle
Procedure: as §1, §2

TNFα = TNFα mRNA in ischemic myocardium; format: in vivo, mouse (C57BL/6); details: evaluated at 2 h and 24 h of reperfusion, vs vehicle
Procedure: as §1, §2

Ugdh = Ugdh levels after I/R; format: in vivo, mouse; details: among the three groups, ML-264 treatment
Procedure: as §1, §2

## CN(C(=O)CNC(=O)/C=C/c1cccc(Cl)c1)C1CCS(=O)(=O)CC1 [ML264]
KLF5; 4 weeks post-ischemia-reperfusion, among the four groups
  KLF5 mRNA levels (4 weeks): unchanged
KLF5; 30 minutes of ischemia, ML264 25 mg/kg/12 h intraperitoneal
  KLF5 mRNA expression level in cardiac tissue: suppression was confirmed
Col3a1
  mRNA levels of Col3a1: decreased
[1]
  reactive oxygen species formation (DHE staining): significant reduction
NOX4
  NOX4 protein levels: suppressed
NOX4; FIG. 5C-5E (mRNA and protein)
  NOX4 levels: significant suppression
BCL-XL
  BCL-XL anti-apoptotic proteins: upregulation
IL-1β
  IL-1β mRNA levels: Significant suppression
IL-6
  IL-6 mRNA levels: Significant suppression
TNFα
  TNFα mRNA levels: Significant suppression
Ugdh
  Ugdh levels: no effect
